{"source": "patent US11197859B2", "about": "(AUTIFONY THERAPEUTICS LIMITED, priority 2010, dated 2021)", "key": {"[1]": {"test_system": "parvalbumin-positive interneurons in the somatosensory cortex", "assay": "Firing of parvalbumin-positive interneurons in somatosensory cortex slices, in vitro", "format": "cell-based, mouse", "conditions": "for frequency of action potential firing in response to step currents: vs TEA alone, p<0.05"}, "MNTB neurons": {"test_system": "MNTB neurons", "assay": "High-voltage activated potassium currents in MNTB neurons, in vitro", "format": "cell-based, mouse", "conditions": "10 microM in continuing presence of TEA (1 mM); effect on the TEA-induced reduction", "description": "Male CBA/Ca mice (aged 12-16 days) were used in these experiments (in accordance with the UK Animals Scientific Procedures Act, 1986). Brain slices containing the medial nucleus of the trapezoid body (MNTB) were prepared as described previously (Brew and Forsythe, 2005).\nChemicals and reagents were purchased from Sigma, (Poole, UK) unless otherwise noted. Reference Example RE1 was dissolved in DMSO and diluted in ACSF to the required concentration.\nRecordings from identified MNTB neurons were conducted as previously described (Brew and Forsythe, 2005). Slices was placed in a superfusion chamber on an inverted microscope stage and continuously perfused with gassed (95% O2-5% CO2) ACSF at a rate of 1 ml min-1 at room temperature. Whole-cell recordings were made from visually identified MNTB neurons using an […] amplifier (Molecular Devices, Union City, Calif., USA). Patch solution comprised (in mM) potassium gluconate (97.5), KCl (32.5), Hepes (40), EGTA (5), MgCl2 (1), Na2phosphocreatin (5), pH 7.2 with KOH. Pipettes had resistances of 3-5 MΩ and series resistances were 6-10 MΩ (compensated by 70%, 10 μs lag). Access resistance was frequently monitored and the recording discarded if increases were more than 2 MΩ. […]"}, "Male CD-1 mice": {"test_system": "Male CD-1 mice", "assay": "Psychostimulant (amphetamine)-induced hyperactivity in mice", "conditions": "AMPH 2 mg/kg i.p. + compound 10 mg/kg p.o. 30 min before; over 60 min; mean ± sem"}}, "data": [{"smiles": "CC[C@H]1NC(=O)N(c2ccc(Oc3ccc(C)c(OC)c3)nc2)C1=O", "note": "[RE1, (5R)-5-ethyl-3-(6-{[4-methyl-3-(methyloxy)phenyl]oxy}-3-pyridinyl)-2,4-imidazolidinedione]", "values": [{"measurement": "decrease of mean action potential half-width", "setting": "[1]; TEA (0.5 mM) + compound 1 μM vs TEA (0.5 mM) only, p<0.05, n=9", "result": 24, "unit": "%"}, {"measurement": "frequency of action potential firing in response to step currents", "setting": "[1]; TEA (0.5 mM) + compound 1 μM, n=9", "result": "significantly reversed"}, {"measurement": "decrease of mean action potential half-width", "setting": "[1]; TEA (0.5 mM) + compound 10 μM vs TEA (0.5 mM) only, p<0.01, n=5", "result": 36, "unit": "%"}, {"measurement": "frequency of action potential firing in response to step currents", "setting": "[1]; TEA (0.5 mM) + compound 10 μM, n=5", "result": "significantly reversed"}, {"measurement": "amplitude of outward high voltage-activated potassium currents evoked by voltage steps to +40 mV", "setting": "MNTB neurons", "result": "reversed"}, {"measurement": "Total Distance Travelled (cm)", "setting": "Male CD-1 mice", "result": "15267 ± 3166", "unit": "cm"}]}]}
